In patent US20250270217A1, “IMIDAZ0[1,2-A]PYRIMIDINE-5(1 H)-ONES HAVING A COVALENT WARHEAD AT THE 3-POSITION AS WRN INHIBITORS” (Incyte Corporation, priority 2023, published 2025):

Tests used:
WRN [1] = biological target: T1, WRN (Homo sapiens, UniProt Q14191); test: WRN ATPase activity assay (ADP-Glo); format: biochemical; conditions: 1-hr pre-incubation with enzyme; 100 μM ATP, 25 nM forked dsDNA, 1 nM WRN; geometric mean of at least 2 replicates
T1 construct: A His-tagged construct of WRN (AA S2-S1235) was produced and used for the ATPase assay; His; made in house; host or cells: Sf9 insect cells (baculovirus)
T1 sequence (Q14191 2-1235): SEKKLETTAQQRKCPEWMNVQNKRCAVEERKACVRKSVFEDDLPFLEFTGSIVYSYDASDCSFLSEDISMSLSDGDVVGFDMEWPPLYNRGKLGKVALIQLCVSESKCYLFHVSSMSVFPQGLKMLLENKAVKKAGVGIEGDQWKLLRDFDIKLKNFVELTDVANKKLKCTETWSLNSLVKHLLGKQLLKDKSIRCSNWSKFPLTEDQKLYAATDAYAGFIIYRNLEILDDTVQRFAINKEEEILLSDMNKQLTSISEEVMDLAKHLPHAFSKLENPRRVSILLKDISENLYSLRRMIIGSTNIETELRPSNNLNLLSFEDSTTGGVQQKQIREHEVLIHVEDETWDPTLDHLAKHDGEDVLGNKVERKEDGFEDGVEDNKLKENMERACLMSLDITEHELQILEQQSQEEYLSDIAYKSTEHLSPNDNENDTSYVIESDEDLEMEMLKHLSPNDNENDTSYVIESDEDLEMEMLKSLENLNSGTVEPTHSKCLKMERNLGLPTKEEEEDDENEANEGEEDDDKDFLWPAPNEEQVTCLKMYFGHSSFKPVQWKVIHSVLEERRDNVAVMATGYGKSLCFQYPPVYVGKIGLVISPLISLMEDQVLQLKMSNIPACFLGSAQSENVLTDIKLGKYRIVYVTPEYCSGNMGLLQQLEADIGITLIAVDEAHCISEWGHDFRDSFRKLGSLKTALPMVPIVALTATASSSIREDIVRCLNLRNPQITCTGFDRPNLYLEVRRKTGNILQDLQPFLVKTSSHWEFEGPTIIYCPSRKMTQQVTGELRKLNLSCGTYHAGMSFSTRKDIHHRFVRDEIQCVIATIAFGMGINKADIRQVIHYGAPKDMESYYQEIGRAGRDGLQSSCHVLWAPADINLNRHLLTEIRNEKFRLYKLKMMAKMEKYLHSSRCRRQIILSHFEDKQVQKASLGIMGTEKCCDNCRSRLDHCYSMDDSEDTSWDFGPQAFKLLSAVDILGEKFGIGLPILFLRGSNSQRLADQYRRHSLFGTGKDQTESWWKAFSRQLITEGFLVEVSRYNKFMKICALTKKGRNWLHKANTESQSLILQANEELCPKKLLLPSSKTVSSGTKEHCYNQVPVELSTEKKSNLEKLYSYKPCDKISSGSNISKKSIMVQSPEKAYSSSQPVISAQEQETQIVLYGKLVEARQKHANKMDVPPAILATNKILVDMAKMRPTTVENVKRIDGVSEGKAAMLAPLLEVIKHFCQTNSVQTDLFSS
Method: Compounds of the Examples were tested for WRN ATPase activity. WRN ATPase activity catalyzes ATP hydrolysis to produce ADP and phosphate. DNA encoding the target protein, 6×HIS-TEV-WRN-517-945, was produced, cloned and transfected as detailed in Example D. The amount of ADP produced was measured using ADP-Glo™ Kinase Assay kit from Promega Corporation in a Greiner white regular volume 384 wells assay plate (Greiner #781075). Data was normalized to a standard curve generated using various ADP concentrations and the corresponding luminescent signal intensities at each concentration. The assay conditions were optimized for enzyme concentration (WRN), substrate concentrations (ATP & dsDNA), and the linearity of the ATPase reaction, in the following assay buffer: 50 mM Tris-HCl, pH-7.5, 2 mM MgCl2, 50 mM NaCl, 1 mM EGTA, 0.01% P-20, 0.05% BSA, and 2 mM DTT prepared with nuclease free water.
A serial dilution (1:3 scheme) of the compounds were prepared in neat DMSO, with 100 nL of the compounds dispensed in the 384 wells assay plate. An 1-hr pre-incubation of the compounds with enzyme was included. A His-tagged construct of WRN (AA S2-S1235) was produced and used for the ATPase assay. Maximum inhibition control wells were set up with the addition of only assay buffer, and no inhibition control wells were set up with neat DMSO without test compounds. The reaction was initiated by addition of 5 μL substrate mix (200 μM ultrapure ATP, and 50 nM dsDNA prepared in assay buffer) and incubated at 25° C. for 35 min. A forked dsDNA oligomer substrate was prepared by annealing equal amounts of oligo GPat-1 ([BHQ2][…]) and oligo GPat-2 ([…][TAM]) and was used as dsDNA substrate for WRN ATPase assay. A typical ATPase reaction consists of 25 nM forked dsDNA, 100 μM ATP, and 1 nM WRN prepared in assay buffer. The WRN ATPase reaction was stopped by the addition of 5 μL of ADP-Glo Reagent from ADP-Glo™ Kinase Assay kit and incubated for 40 min to deplete the unreacted ATP. Afterwards, 5 μL of Kinase Detection Reagent from the ADP-Glo™ Kinase Assay kit was added and incubated for 1 hr for the development of luminescence signal.
Luminesce signals were measured on BMG PHERAstar FSX using luminescence protocol. Data analysis was carried out using Genedata software following % of control normalization. Fitting parameters include dose response IC50, Hill slope (n), maximum inhibition (S∞), and minimum inhibition (S0). The reported IC50 values for compounds in this invention are the geometric means of at least 2 independent replicates.

WRN [2] = biological target: T1, WRN; test: WRN Helicase activity assay (fluorescence DNA unwinding); format: biochemical; conditions: 1-hr pre-incubation with enzyme; 100 μM ATP, 25 nM forked dsDNA, 1 nM WRN; geometric mean of at least 2 replicates
Method: Compounds of the examples were tested for WRN helicase activity. DNA encoding the target protein, 6×HIS-TEV-WRN-517-945, was produced, cloned and transfected as detailed in Example D. To determine the inhibitory properties of the compounds, a 384 wells plate-based Helicase assay was set up to measure the extent of DNA unwinding (Helicase) activity of WRN. The WRN Helicase assay was designed to measure increase in fluorescence signal using a fluorescence based, donor-quencher paired forked dsDNA oligomer substrate (custom synthesis from Sigma-Aldrich) prepared by annealing equal amounts of oligo GPat-1 ([BHQ2][…]) and oligo GPat-2 ([…][TAM]). Continuous measurement of fluorescent signal was used to optimize the buffer conditions, concentration of enzyme (WRN), concentration of substrates (ATP & dsDNA), and the linearity of the Helicase reaction. All solutions were prepared in the following assay buffer: 50 mM Tris-HCl, pH-7.5, 2 mM MgCl2, 50 mM NaCl, 1 mM EGTA, 0.01% P-20, 0.05% BSA, and 2 mM DTT prepared with nuclease free water.
A serial dilution (1:3 scheme) of the compounds was prepared in neat DMSO and 100 nL of the compounds was dispensed in the Greiner black low volume (Greiner #784076) 384 wells assay plate. An 1-hr pre-incubation of the compounds with enzyme was included. A His-tagged construct of WRN (AA S2-S1235) was produced and used for the ATPase assay. Maximum inhibition control wells were set up with the addition of only assay buffer, and no inhibition control wells were set up with neat DMSO without test compounds. The reaction was initiated by addition of 5 μL substrate mix (200 μM ultrapure ATP, and 50 nM dsDNA prepared in assay buffer) and incubated at 25° C. for 35 min. A typical Helicase reaction consists of 25 nM forked dsDNA, 100 μM ATP, and 1 nM WRN prepared in assay buffer. The WRN Helicase reaction was quenched by the addition of 5 μL ‘STOP’ solution containing 100 mM EDTA (final EDTA concentration 33.33 mM) prepared in assay buffer. The plates were read on BMG PHERAstar FSX using 540/590 module to measure an increase of fluorescence. Data analysis was carried out using the Genedata software following % of control normalization. Fitting parameters include dose response IC50, Hill slope (n), maximum inhibition (S∞), and minimum inhibition (S0). The reported IC50 values for compounds in this invention are the geometric means of at least 2 independent replicates.

| IC50 (WRN [1]) | IC50 (WRN [2]) | SMILES |
| --- | --- | --- |
| < 100 nM | < 100 nM | C=CC(=O)Nc1ccccc1-c1c(CC)nc2n(CC(=O)Nc3ccc(C(F)(F)F)cc3)c(C)c(-c3cnn(C)c3)n2c1=O [Example 16, N-(2-(7-Ethyl-2-methyl-3-(1-methyl-1H-pyrazol-4-yl)-5-oxo-1-(2-oxo-2-((4-(trifluoromethyl)phenyl)amino)ethyl)-1,5-dihydroimidazo[1,2-a]pyrimidin-6-yl)phenyl)acrylamide] |
| 100 to 500 nM | 100 to 500 nM | C=CC(=O)Nc1ccccc1-c1c(CC)nc2n(CC(=O)Nc3ccc(F)cc3)ccn2c1=O [Example 17, N-(2-(7-ethyl-1-(2-((4-fluorophenyl)amino)-2-oxoethyl)-5-oxo-1,5-dihydroimidazo[1,2-a]pyrimidin-6-yl)phenyl)acrylamide] |
| < 100 nM | < 100 nM | C=CC(=O)Nc1ccccc1-c1c(CC)nc2n(CC(=O)Nc3ccc(F)cc3)c(C)c(C)n2c1=O [Example 18, N-(2-(7-Ethyl-1-(2-((4-fluorophenyl)amino)-2-oxoethyl)-2,3-dimethyl-5-oxo-1,5-dihydroimidazo[1,2-a]pyrimidin-6-yl)phenyl)acrylamide] |
| < 100 nM | < 100 nM | C=CC(=O)Nc1ccccc1-c1c(C)nc2n(CC(=O)Nc3ccc(F)cc3)c(C)c(C)n2c1=O [Example 19, N-(2-(1-(2-((4-Fluorophenyl)amino)-2-oxoethyl)-2,3,7-trimethyl-5-oxo-1,5-dihydroimidazo[1,2-a]pyrimidin-6-yl)phenyl)acrylamide] |
| < 100 nM | < 100 nM | C=CC(=O)Nc1ccccc1-c1c(CC)nc2n(CC(=O)Nc3ccc(F)cc3Cl)c(C)c(C)n2c1=O [Example 20, N-(2-(1-(2-((2-Chloro-4-fluorophenyl)amino)-2-oxoethyl)-7-ethyl-2,3-dimethyl-5-oxo-1,5-dihydroimidazo[1,2-a]pyrimidin-6-yl)phenyl)acrylamide] |
| < 100 nM | < 100 nM | C=CC(=O)Nc1ccccc1-c1c(CC)nc2n(CC(=O)Nc3ccc(C(F)(F)F)cc3)c(C)c(C)n2c1=O [Example 21, N-(2-(7-Ethyl-2,3-dimethyl-5-oxo-1-(2-oxo-2-((4-(trifluoromethyl)phenyl)amino)ethyl)-1,5-dihydroimidazo[1,2-a]pyrimidin-6-yl)phenyl)acrylamide] |
| 1000 to 5000 nM | 500 to 1000 nM | C=CC(=O)Nc1ccccc1-c1c(CC)nc2n(CC(=O)Nc3ccc(C(F)(F)F)cc3)c(-c3ccccc3)cn2c1=O [Example 22, N-(2-(7-Ethyl-5-oxo-1-(2-oxo-2-((4-(trifluoromethyl)phenyl)amino)ethyl)-2-phenyl-1,5-dihydroimidazo[1,2-a]pyrimidin-6-yl)phenyl)acrylamide] |
| < 100 nM | < 100 nM | C=CC(=O)Nc1cc(C(=O)NC2CC2)ccc1-c1c(CC)nc2n(CC(=O)Nc3ccc(C(F)(F)F)cc3)c(C)c(C)n2c1=O [Example 23, 3-Acrylamido-N-cyclopropyl-4-(7-ethyl-2,3-dimethyl-5-oxo-1-(2-oxo-2-((4-(trifluoromethyl)phenyl)amino)ethyl)-1,5-dihydroimidazo[1,2-a]pyrimidin-6-yl)benzamide] |
| < 100 nM | < 100 nM | C=CC(=O)Nc1cc(C(=O)NC2CC2)ccc1-c1c(CC)nc2n(CC(=O)Nc3ccc(F)cc3)c(C)c(C)n2c1=O [Example 24, 3-Acrylamido-N-cyclopropyl-4-(7-ethyl-1-(2-((4-fluorophenyl)amino)-2-oxoethyl)-2,3-dimethyl-5-oxo-1,5-dihydroimidazo[1,2-a]pyrimidin-6-yl)benzamide] |
| < 100 nM | < 100 nM | C=CC(=O)Nc1cc(C(=O)NC2CC2)ccc1-c1c(CC)nc2n(CC(=O)Nc3ccc(F)cc3Cl)c(C)c(C)n2c1=O [Example 25, 3-Acrylamido-4-(1-(2-((2-chloro-4-fluorophenyl)amino)-2-oxoethyl)-7-ethyl-2,3-dimethyl-5-oxo-1,5-dihydroimidazo[1,2-a]pyrimidin-6-yl)-N-cyclopropylbenzamide] |
| < 100 nM | < 100 nM | C=CC(=O)Nc1cc(C(=O)NC2CC2)ccc1-c1c(CC)nc2n(CC(=O)Nc3ccc(C(F)(F)F)cc3Cl)c(C)c(C)n2c1=O [Example 26, 3-Acrylamido-4-(1-(2-((2-chloro-4-(trifluoromethyl)phenyl)amino)-2-oxoethyl)-7-ethyl-2,3-dimethyl-5-oxo-1,5-dihydroimidazo[1,2-a]pyrimidin-6-yl)-N-cyclopropylbenzamide] |
| < 100 nM | < 100 nM | C=CC(=O)Nc1cc(C(=O)NCC)ccc1-c1c(CC)nc2n(CC(=O)Nc3ccc(C(F)(F)F)cc3)c(C)c(C)n2c1=O [Example 27, 3-Acrylamido-N-ethyl-4-(7-ethyl-2,3-dimethyl-5-oxo-1-(2-oxo-2-((4-(trifluoromethyl)phenyl)amino)ethyl)-1,5-dihydroimidazo[1,2-a]pyrimidin-6-yl)benzamide] |
| < 100 nM | < 100 nM | C=CC(=O)Nc1cc(C(=O)NC(C)C)ccc1-c1c(CC)nc2n(CC(=O)Nc3ccc(C(F)(F)F)cc3)c(C)c(C)n2c1=O [Example 28, 3-Acrylamido-4-(7-ethyl-2,3-dimethyl-5-oxo-1-(2-oxo-2-((4-(trifluoromethyl)phenyl)amino)ethyl)-1,5-dihydroimidazo[1,2-a]pyrimidin-6-yl)-N-isopropylbenzamide] |
| < 100 nM | < 100 nM | C=CC(=O)Nc1cc(C(=O)NC2CCC2)ccc1-c1c(CC)nc2n(CC(=O)Nc3ccc(C(F)(F)F)cc3)c(C)c(C)n2c1=O [Example 29, 3-Acrylamido-N-cyclobutyl-4-(7-ethyl-2,3-dimethyl-5-oxo-1-(2-oxo-2-((4-(trifluoromethyl)phenyl)amino)ethyl)-1,5-dihydroimidazo[1,2-a]pyrimidin-6-yl)benzamide] |
| < 100 nM | < 100 nM | C=CC(=O)Nc1cc(C(=O)NCC(F)F)ccc1-c1c(CC)nc2n(CC(=O)Nc3ccc(C(F)(F)F)cc3)c(C)c(C)n2c1=O [Example 30, 3-Acrylamido-N-(2,2-difluoroethyl)-4-(7-ethyl-2,3-dimethyl-5-oxo-1-(2-oxo-2-((4-(trifluoromethyl)phenyl)amino)ethyl)-1,5-dihydroimidazo[1,2-a]pyrimidin-6-yl)benzamide] |
| < 100 nM | < 100 nM | C=CC(=O)Nc1cc(C(=O)NCCOC)ccc1-c1c(CC)nc2n(CC(=O)Nc3ccc(C(F)(F)F)cc3)c(C)c(C)n2c1=O [Example 31, 3-Acrylamido-4-(7-ethyl-2,3-dimethyl-5-oxo-1-(2-oxo-2-((4-(trifluoromethyl)phenyl)amino)ethyl)-1,5-dihydroimidazo[1,2-a]pyrimidin-6-yl)-N-(2-methoxyethyl)benzamide] |
